Source: patent publication US8906908B2, “Hydroxybupropion analogues for treating drug dependence” (priority 2010, dated 2014)
Read-outs that look alike come from different tables or passages of the source.

Columns and labels:
[1] = target: T1, 5HT transporters [(h)SERT] (Homo sapiens, UniProt P31645); assay: Inhibition of [3H]serotonin uptake into HEK293 cells stably expressing hSERT; type: cell-based; details: read-out: monoamine uptake inhibition IC50 [3H]5HT
T1 construct: expressed in transfected cells; host or cells: HEK-293
T1 sequence (P31645 whole entry): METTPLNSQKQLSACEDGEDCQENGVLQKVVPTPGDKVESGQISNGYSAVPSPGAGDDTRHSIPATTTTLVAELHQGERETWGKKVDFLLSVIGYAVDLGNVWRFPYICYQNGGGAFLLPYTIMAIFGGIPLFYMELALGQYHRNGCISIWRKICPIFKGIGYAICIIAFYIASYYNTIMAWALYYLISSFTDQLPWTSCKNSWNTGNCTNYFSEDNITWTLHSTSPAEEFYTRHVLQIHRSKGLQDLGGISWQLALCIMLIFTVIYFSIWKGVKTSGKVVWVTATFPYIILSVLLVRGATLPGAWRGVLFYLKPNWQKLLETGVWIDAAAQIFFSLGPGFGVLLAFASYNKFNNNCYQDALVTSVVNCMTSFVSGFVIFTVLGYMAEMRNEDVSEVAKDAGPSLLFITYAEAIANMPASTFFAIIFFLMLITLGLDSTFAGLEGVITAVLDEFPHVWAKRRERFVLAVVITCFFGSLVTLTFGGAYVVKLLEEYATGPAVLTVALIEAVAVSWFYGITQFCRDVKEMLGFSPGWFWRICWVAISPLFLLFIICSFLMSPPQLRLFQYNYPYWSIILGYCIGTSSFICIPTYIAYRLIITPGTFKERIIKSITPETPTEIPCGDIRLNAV
From the text: (§1) Cell Lines and Culture: Human embryonic kidney (HEK-293) cells stably expressing human DAT, NET or SERT were maintained as previously described in Eshleman, A. J.; Carmolli, M.; Cumbay, M.; Martens, C. R.; Neve, K. A.; Janowsky, A., J. Pharmacol. Exp. Ther. 1999, 289, (2), 877-885. Use was made of several human cell lines that naturally or heterologously express specific, functional, human nAChR subtypes. Cells of the TE671/RD line naturally expresses muscle-type nAChR (a1β1γδ- or α1*-nAChR), and SH-SY5Y neuroblastoma cells naturally expresses autonomic α3β4*-nAChRs (containing α3, β4, probably α5, and sometimes β2 subunits). Different clones of SH-EP1 epithelial cell lines have been engineered to heterologously express either α4β2-nAChR, which are thought to be the most abundant, high affinity nicotine-binding nAChR in mammalian brain, or α4β4-nAChR, another possible brain nAChR subtype (SH-EP1-hα4β2 or α4β4 cells, respectively). These cells were maintained as low passage number (1-26 from our frozen stocks) cultures to ensure stable expression of native or heterologously-expressed nAChR as previously described (see Lukas, R. J.; Fryer, J. D.; Eaton, J. B.; L., G. C., Some methods for studies of nicotinic acetylcholine receptor pharmacology, in Nicotinic receptors and the Nervous System, Levine, E. D., Ed. CRC Press: Boca Raton, 2002; pp 3-27, incorporated herein by reference in its entirety). Cells were passaged once weekly by splitting just-confluent cultures 1/300 (TE671/RD), 1/5 (SH-SY5Y), or 1/20 (transfected SH-EP1) in serum-supplemented medium to maintain log-phase growth.
See, for example, Damaj, M. I.; Carroll, F. I.; Eaton, J. B.; Navarro, H. A.; Blough, B. E.; Mirza, S.; Lukas, R. J.; Martin, B. R., Mol. Pharmacol. 2004, 66, (3), 675-682 and Eshleman, A. J.; Carmolli, M.; Cumbay, M.; Martens, C. R.; Neve, K. A.; Janowsky, A., J. Pharmacol. Exp. Ther. 1999, 289, (2), 877-885, both incorporated by reference herein in their entireties.

[2] = target: T2, α4β4-nAChR (Homo sapiens, UniProt P30926+P43681); assay: 86Rb+ efflux nAChR functional assay, SH-EP1-hα4β4 cells; type: cell-based; details: EC80-EC90 carbamylcholine, parentheses = S.E.M. as multiplication/division factor, read-out: nAChR inhibition IC50 α4β4
T2 construct: expressed in transfected cells; host or cells: SH-EP1 epithelial cells (SH-EP1-hα4β4)
T2 sequence (P43681 29-627 limits assumed): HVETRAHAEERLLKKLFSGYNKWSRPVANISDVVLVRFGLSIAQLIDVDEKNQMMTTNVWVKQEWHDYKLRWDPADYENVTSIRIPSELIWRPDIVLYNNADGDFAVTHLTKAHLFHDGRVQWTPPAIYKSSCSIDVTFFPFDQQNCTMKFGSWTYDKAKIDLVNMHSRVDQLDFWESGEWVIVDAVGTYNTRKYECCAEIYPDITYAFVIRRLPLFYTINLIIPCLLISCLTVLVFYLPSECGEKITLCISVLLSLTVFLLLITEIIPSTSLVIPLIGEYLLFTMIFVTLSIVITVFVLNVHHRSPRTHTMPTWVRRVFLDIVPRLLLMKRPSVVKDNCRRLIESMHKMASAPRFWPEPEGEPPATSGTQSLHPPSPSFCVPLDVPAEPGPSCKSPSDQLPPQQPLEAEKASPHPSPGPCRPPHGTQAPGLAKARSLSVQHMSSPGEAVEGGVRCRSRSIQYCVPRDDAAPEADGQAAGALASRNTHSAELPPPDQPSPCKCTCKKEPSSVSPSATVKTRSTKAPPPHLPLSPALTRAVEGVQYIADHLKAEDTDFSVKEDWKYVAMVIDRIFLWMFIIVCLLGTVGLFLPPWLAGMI
T2 sequence (P30926 22-498): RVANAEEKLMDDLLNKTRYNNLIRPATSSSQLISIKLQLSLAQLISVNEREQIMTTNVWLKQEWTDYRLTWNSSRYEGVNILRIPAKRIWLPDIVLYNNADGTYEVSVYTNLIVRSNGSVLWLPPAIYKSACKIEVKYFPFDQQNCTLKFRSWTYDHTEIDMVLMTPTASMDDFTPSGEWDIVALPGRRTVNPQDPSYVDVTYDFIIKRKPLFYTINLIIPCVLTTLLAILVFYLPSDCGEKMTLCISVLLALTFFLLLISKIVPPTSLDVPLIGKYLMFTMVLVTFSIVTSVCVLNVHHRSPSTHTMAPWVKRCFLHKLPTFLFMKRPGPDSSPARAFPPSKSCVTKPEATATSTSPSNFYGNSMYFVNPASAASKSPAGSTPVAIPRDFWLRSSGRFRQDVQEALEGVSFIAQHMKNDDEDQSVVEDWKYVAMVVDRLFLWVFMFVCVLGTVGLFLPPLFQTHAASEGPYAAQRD
From the text: as §1
After cells had adhered (generally overnight, but no sooner than 4 h later), the medium was removed and replaced with 250 μL per well of complete medium supplemented with ˜350,000 cpm of ^86Rb^+ (PerkinElmer Life and Analytical Sciences, Boston, Mass.) and counted at 40% efficiency using Cerenkov counting (TriCarb 1900 liquid scintillation analyzer[…]; PerkinElmer Life Sciences).
After at least 4 h and typically overnight, ^86Rb^+ efflux was measured using the “flip-plate” technique. See Lukas, R. J.; Fryer, J. D.; Eaton, J. B.; L., G. C., Some methods for studies of nicotinic acetylcholine receptor pharmacology, in Nicotinic receptors and the Nervous System, Levine, E. D., Ed. CRC Press: Boca Raton, 2002; pp 3-27, incorporated herein by reference in its entirety). Briefly, after aspiration of the bulk of ^86Rb^+ loading medium from each well of the “cell plate,” each well containing cells was rinsed 3× with 2 mL of fresh ^86Rb^+ efflux buffer (130 mM NaCl, 5.4 mM KCl, 2 mM CaCl2, 5 mM glucose, 50 mM HEPES, pH 7.4) to remove extracellular ^86Rb^+. Following removal of residual rinse buffer by aspiration, the flip-plate technique was used again to simultaneously introduce 1.5 mL of fresh efflux buffer containing drugs of choice at indicated final concentrations from a 24-well “efflux/drug plate” into the wells of the cell plate. After a 5 min incubation, the solution was “flipped” back into the efflux/drug plate, and any remaining buffer in the cell plate was removed by aspiration. Cells remaining in the cell plate were lysed and suspended by addition of 1.5 mL of 0.1 M NaOH, 0.1% sodium dodecyl sulfate to each well.
Similarly, the sum of ^86Rb^+ in cell plates and efflux/drug plates also determined the efficiency of ^86Rb^+ loading (the percentage of applied ^86Rb^+ actually loaded into cells).
Specific efflux was then taken as the difference in control samples between total and non-specific ^86Rb^+ efflux. Any intrinsic agonist activity of test drugs was ascertained using samples containing test drug only at different concentrations and was normalized, after subtraction of non-specific efflux, to specific efflux in test drug-free, control samples.

[3] = test system: Male Institute of Cancer Research (ICR) mice; assay: Hot-plate test, blockade of nicotine-induced antinociception; type: in vivo; details: pretreatment 15 min before nicotine 2.5 mg/kg s.c., tested 5 min after nicotine
From the text: (§2) Animals: Male Institute of Cancer Research (ICR) mice (weighing 20-25 g) obtained from Harlan (Indianapolis, Ind.) were used throughout the study. Animals were housed in an Association for Assessment and Accreditation of Laboratory Animal Care-approved facility, were placed in groups of six, and had free access to food and water. Studies were approved by the Institutional Animal Care and Use Committee of Virginia Commonwealth University.
Hot-Plate Test: Mice were placed into a 10-cm wide glass cylinder on a hot plate (Thermojust Apparatus) maintained at 55° C. for assessment of pain responses mediated at supraspinal levels. To minimize tissue damage, a maximum exposure to the hot plate 40 s was imposed. Measures of control latencies (time until the animal jumped or licked its paws; typically 8-12 s) were done twice for stimuli applied at least 10 min apart for each mouse. Antinociceptive responses after test drug administrations were determined and calculated as the % MPE, where % MPE=[(test latency in s−control latency in s)/(40 s−control latency in s)×100]. Groups of 8 to 12 animals were used for each drug condition. […] The animals were then tested 5 min after administration of a subcutaneous dose of 2.5 mg/kg nicotine.

[4] = test system: Male Institute of Cancer Research (ICR) mice; assay: Locomotor activity, antagonism of nicotine effect; type: in vivo; details: pretreatment 15 min before nicotine […] s.c.
From the text: as §2
Locomotor Activity: Mice were placed into individual Omnitech photocell activity cages (28×16.5 cm; Omnitech Electronics, Columbus, Ohio) 5 min after subcutaneous administration of either 0.9% saline or nicotine (1.5 mg/kg). Interruptions of the photocell beams (two banks of eight cells each) were then recorded for the next 10 min. Data were expressed as the number of photocell interruptions.

Structure (SMILES) | IC50 ([1]; HEK293-hSERT, mean ± standard error of three independent experiments) | IC50 [2] | AD50 Hot-plate [3] | AD50 Locomotion [4] | IC50 [1]
C[C@@H]1NC(C)(C)CO[C@@]1(O)c1ccccc1 [Compound 4b, (2S,3S)-2-Phenyl-3,5,5-trimethylmorpholin-2-ol] | > 10 µM | 92 µM | IA (IA: AD50 > 15 mg/kg) | IA (IA: AD50 > 15 mg/kg) | 
C[C@@H]1NC(C)(C)CO[C@@]1(O)c1ccc2ccccc2c1 [Compound 4r, (2S,3S)-2-(Naphthalen-2-yl)-3,5,5-trimethylmorpholin-2-ol] |  | 11 µM | IA (IA: AD50 > 15 mg/kg) | IA (IA: AD50 > 15 mg/kg) | 0.334 ± 0.042 µM
